According to US7112574B2, “C2,8-disubstituted adenosine derivatives and their different uses” (priority 2001, dated 2006):

Key:
[1] = molecular target: T1, human A3 receptor (Homo sapiens, UniProt P0DMS8); assay: Radioligand binding, displacement of [125I]AB-MECA from human A3 receptor expressed in HEK 293 cells; settings: [125I]AB-MECA, human A3 receptor in HEK 293 cells; 10 μM; n=2, mean value
T1 construct: expressed in transfected cells; host or cells: HEK 293
T1 sequence (P0DMS8 1-318): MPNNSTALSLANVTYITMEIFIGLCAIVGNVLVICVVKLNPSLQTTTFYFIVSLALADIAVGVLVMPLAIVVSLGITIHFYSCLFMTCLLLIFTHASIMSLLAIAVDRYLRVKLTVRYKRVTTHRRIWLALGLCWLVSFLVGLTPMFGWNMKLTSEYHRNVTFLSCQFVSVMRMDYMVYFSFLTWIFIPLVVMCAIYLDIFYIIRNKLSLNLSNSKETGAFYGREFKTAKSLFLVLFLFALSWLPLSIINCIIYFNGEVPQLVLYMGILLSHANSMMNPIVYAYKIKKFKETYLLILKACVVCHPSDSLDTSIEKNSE
Experimental: (§1) Incubations were carried out for 1 hr at 37° C. and were terminated by rapid filtration over Whatman GF/B filters, using a Brandell cell harvester (Brandell, Gaithersburg, Md.). Tubes were washed three times with 3 ml of buffer. Radioactivity was determined in a Beckman 5500B γ-counter. Nonspecific binding was determined in the presence of 10^−5 M R-PIA.
(§2) All compounds prepared were tested in radioligand binding assays to determine their affinities for the adenosine A1 receptor in rat brain cortex, the A2A receptor in rat striatum and the human A3 receptor as expressed in HEK 293 cells (Table 2, hereinafter). The Ki values were computed from the displacement curves obtained by nonlinear regression of the competition curves with the software package Prism (Graph Pad, San Diego, Calif.)
(§3) For the adenosine A1 receptor, the tritiated antagonist, [^3H]-1,3-dipropyl-8-cyclopentylxanthine ([^3H]DPCPX), and for the adenosine A2A receptor, the tritiated antagonist [^3H]ZM 241385 were used. Since radiolabeled antagonists are not commercially available for the adenosine A3 receptor, [125I]AB-MECA, an A3 receptor agonist, was used. Displacement experiments were performed in the absence of GTP.

[2] = molecular target: human adenosine A2A receptors (Homo sapiens, UniProt P29274)
Experimental: CHO cells expressing the human adenosine A2A receptors were grown overnight as a monolayer in 24 wells tissue culture plates (400 μl/well; 2×10^5 cells/well). cAMP generation was performed in Dulbecco's Modified Eagles Medium (DMEM)/N-2-hydroxyethylpiperazin-N′-2-ethansulfonic acid HEPES) buffer (0.60 g HEPES/50 ml DMEM pH 7.4). To each well, washed three times with DMEM/HEPES buffer (250 μl), 100 μl DMEM/HEPES buffer, 100 μl adenosine deaminase (final concentration 5 IU/ml) and 100 μl of a mixture of rolipram and cilostamide (final concentration 50 μM each) were added. After incubation for 40 minutes at 37° C., 100 μL agonist was added. After 15 minutes at 37° C., the reaction was terminated by removing the medium and adding 200 μl 0.1 M HCl. Wells were stored at −20° C. until assay.
The amounts of cAMP were determined after a protocol with cAMP binding protein^12 with the following minor modifications. As a buffer was used 150 mM K2HPO4/10 mM EDTA/0.2% Bovine Serum Albumine (BSA) at pH 7.5. Samples (20 μl+30 μl 0.1 M HCl) were incubated for at least 2.5 hours at 0° C. before filtration over Whatman GF/B filters. […] Filters were counted in Packard Emulsifier Safe scintillation fluid (3.5 ml) after 24 hours of extraction.
All compounds prepared were also tested in a functional assay.

[3] = molecular target: T2, adenosine A1 receptor (Rattus norvegicus, UniProt P25099); assay: biochemical
T2 sequence (P25099 1-326): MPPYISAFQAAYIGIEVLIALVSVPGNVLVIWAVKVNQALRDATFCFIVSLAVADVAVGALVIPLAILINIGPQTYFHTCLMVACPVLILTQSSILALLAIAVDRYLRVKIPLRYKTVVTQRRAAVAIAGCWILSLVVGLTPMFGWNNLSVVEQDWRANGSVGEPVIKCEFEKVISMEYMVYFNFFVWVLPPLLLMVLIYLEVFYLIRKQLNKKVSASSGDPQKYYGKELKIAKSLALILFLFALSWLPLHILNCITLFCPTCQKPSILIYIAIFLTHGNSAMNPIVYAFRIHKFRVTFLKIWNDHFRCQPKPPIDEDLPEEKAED
Experimental: as §1, §2, §3

[4] = molecular target: adenosine A2A receptor (Rattus norvegicus, UniProt P30543); assay: biochemical; settings: [3H]ZM241385, rat striatal membranes; 10 μM; n=2, mean value
Experimental: as §1, §2, §3

## CCCC/C=C/c1nc(N)c2nc(NCc3ccccc3)n([C@@H]3O[C@H](CO)[C@@H](O)[C@H]3O)c2n1 [Compound 21, 2-((E)-1-hexenyl)-8-benzylaminoadenosine]
[1]
  % displacement at 10^-5 M, A3: 24.3%
[2]
  % cAMP production hA2A: 73% (72–75)
[3]
  Ki: 2.11 ± 0.56 µM
[4]
  % displacement at 10^-5 M, A2A: 26.3%
other
  melting point: 153 to 155 °C
